Data: patent US11034650B2, “Compounds useful for treating a Mannheimia haemolytica or Histophilus somni infection” (Intervet Inc., priority 2016, dated 2021)
Values after ≈ are worked out from the molar mass of the structure shown.

What was measured:
Assay type in all cases: cell-based
[1] = tested on: Mannheimia haemolytica MH 6357 (M7/2, reference strain, cattle infection strain); test: MIC, broth-microdilution (CLSI VET01-A4), strain MH 6357; details: Mannheimia haemolytica strain MH 6357, broth-microdilution; unit assumed
In short: (§1)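 Compounds were serially diluted twofold in microdilution trays. Growth was judged by eye, and the MIC was the lowest concentration showing no turbidity. Results were interpreted per CLSI VET01-S3.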

[2] = tested on: Pasteurella multocida PM 10775 (080130003051, BRD field isolate); test: MIC, broth-microdilution (CLSI VET01-A4), strain PM 10775; details: Pasteurella multocida strain PM 10775, broth-microdilution; unit assumed
In short: as §1

[3] = tested on: Pasteurella multocida PM 6267 (P 2225 (L386), reference strain, mouse infection strain); test: MIC, broth-microdilution (CLSI VET01-A4), strain PM 6267; details: Pasteurella multocida strain PM 6267, broth-microdilution; unit assumed
In short: as §1

[4] = tested on: Mannheimia haemolytica MH 6374 (ATCC 33396, reference strain); test: MIC, broth-microdilution (CLSI VET01-A4), strain MH 6374; details: Mannheimia haemolytica strain MH 6374, broth-microdilution; unit assumed
In short: as §1

[5] = tested on: Pasteurella multocida PM 12080 (IV102277-0093, BRD field isolate); test: MIC, broth-microdilution (CLSI VET01-A4), strain PM 12080; details: Pasteurella multocida strain PM 12080, broth-microdilution; unit assumed
In short: as §1

[6] = tested on: Pasteurella multocida PM 6391 (ATCC 43137, reference strain); test: MIC, broth-microdilution (CLSI VET01-A4), strain PM 6391; details: Pasteurella multocida strain PM 6391, broth-microdilution; unit assumed
In short: as §1

[7] = tested on: Mannheimia haemolytica MH 13093 (XB0472-6014.1, BRD field isolate); test: MIC, broth-microdilution (CLSI VET01-A4), strain MH 13093; details: Mannheimia haemolytica strain MH 13093, broth-microdilution; unit assumed
In short: as §1

[8] = tested on: Mannheimia haemolytica MH 10720 (154, BRD field isolate); test: MIC, broth-microdilution (CLSI VET01-A4), strain MH 10720; details: Mannheimia haemolytica strain MH 10720, broth-microdilution; unit assumed
In short: as §1

[9] = tested on: Mannheimia haemolytica MH 13065 (XB0446-6003.9, BRD field isolate); test: MIC, broth-microdilution (CLSI VET01-A4), strain MH 13065; details: Mannheimia haemolytica strain MH 13065, broth-microdilution; unit assumed
In short: as §1

[10] = tested on: Mannheimia haemolytica MH 12587 (1071, BRD field isolate, macrolide-resistance: erm+, E+); test: MIC, broth-microdilution (CLSI VET01-A4), strain MH 12587; details: Mannheimia haemolytica strain MH 12587, broth-microdilution; unit assumed
In short: as §1

SMILES | MIC PM 10775 [2] [µg/mL] | MIC PM 6267 [3] [µg/mL] | MIC PM 12080 [5] [µg/mL] | MIC PM 6391 [6] [µg/mL] | MIC MH 6357 [1] [µg/mL] | MIC MH 6374 [4] [µg/mL] | MIC MH 13093 [7] [µg/mL] | MIC MH 10720 [8] [µg/mL] | MIC MH 13065 [9] [µg/mL] | MIC MH 12587 [10] [µg/mL]
C=CCNCc1ccc(C#Cc2ccc(C(=O)N[C@H](C(=O)NO)C(C)(C)SC)cc2)cc1 [C.236] | ≤ 0.1 | ≤ 0.1 | 0.4 (≈ 0.886 µM) | 0.4 (≈ 0.886 µM) | 0.8 (≈ 1.77 µM) | 0.8 (≈ 1.77 µM) | 0.8 (≈ 1.77 µM) | ≤ 0.1 | 0.8 (≈ 1.77 µM) | 1.6 (≈ 3.54 µM)
Cc1cnc(CNCc2ccc(C#Cc3ccc(C(=O)N[C@H](C(=O)NO)C(C)(C)S(C)(=O)=O)cc3)cn2)o1 [Compound 357] | ≤ 0.1 | 0.8 (≈ 1.48 µM) | 0.2 (≈ 0.371 µM) | 0.4 (≈ 0.741 µM) | 0.8 (≈ 1.48 µM) | 0.8 (≈ 1.48 µM) | 1.6 (≈ 2.97 µM) | ≤ 0.1 | 0.8 (≈ 1.48 µM) | 1.6 (≈ 2.97 µM)
CC[C@H](C)[C@H](NC(=O)c1ccc(C#Cc2cccc(CNC3CC3)c2)cc1)C(=O)NO [Compound 144] | 0.4 (≈ 0.953 µM) | 3.1 (≈ 7.39 µM) | 3.1 (≈ 7.39 µM) | 12.5 (≈ 29.8 µM) | 6.3 (≈ 15 µM) | 12.5 (≈ 29.8 µM) | 12.5 (≈ 29.8 µM) | 1.6 (≈ 3.81 µM) | 12.5 (≈ 29.8 µM) | 25 (≈ 59.6 µM)
CC(C)(C(NC(=O)c1ccc(C#Cc2ccc(CN3CCOCC3)nc2)cc1)C(=O)NO)S(C)(=O)=O (centres unmarked) [Compound 350] | ≤ 0.1 | 6.3 (≈ 12.2 µM) | 0.4 (≈ 0.777 µM) | 0.8 (≈ 1.55 µM) | 6.3 (≈ 12.2 µM) | 6.3 (≈ 12.2 µM) | 6.3 (≈ 12.2 µM) | 1.6 (≈ 3.11 µM) | 6.3 (≈ 12.2 µM) | 12.5 (≈ 24.3 µM)
CSC(C)(C)[C@H](NC(=O)c1ccc(C#Cc2ccc(CN3CCCC3)cc2)cc1)C(=O)NO [Compound 242] | 0.2 (≈ 0.43 µM) | 0.4 (≈ 0.859 µM) | 0.8 (≈ 1.72 µM) | 1.6 (≈ 3.44 µM) | 6.3 (≈ 13.5 µM) | 6.3 (≈ 13.5 µM) | 3.1 (≈ 6.66 µM) | 0.8 (≈ 1.72 µM) | 3.1 (≈ 6.66 µM) | 6.3 (≈ 13.5 µM)
CON=C(C)[C@H](NC(=O)c1ccc(C#Cc2ccc(CNCc3ccnc(Cl)c3)cc2)cc1)C(=O)NO [Compound 389] | 0.4 (≈ 0.769 µM) | 3.1 (≈ 5.96 µM) | 0.4 (≈ 0.769 µM) | ≤ 0.1 | 0.8 (≈ 1.54 µM) | 1.6 (≈ 3.08 µM) | 1.6 (≈ 3.08 µM) | 0.8 (≈ 1.54 µM) | 1.6 (≈ 3.08 µM) | 0.4 (≈ 0.769 µM)
C=CCNCc1ccc(C#Cc2ccc(C(=O)N[C@H](C(=O)NO)C(C)(C)SC)cc2)cn1 [Compound 336] | ≤ 0.1 | 0.8 (≈ 1.77 µM) | 0.8 (≈ 1.77 µM) | 1.6 (≈ 3.54 µM) | 0.8 (≈ 1.77 µM) | 0.8 (≈ 1.77 µM) | 1.6 (≈ 3.54 µM) | 0.2 (≈ 0.442 µM) | 1.6 (≈ 3.54 µM) | 3.1 (≈ 6.85 µM)

Continued, in another order:

MIC PM 10775 [2] [µg/mL] | MIC PM 6267 [3] [µg/mL] | MIC PM 12080 [5] [µg/mL] | MIC PM 6391 [6] [µg/mL] | SMILES | MIC MH 6357 [1] [µg/mL] | MIC MH 6374 [4] [µg/mL] | MIC MH 13093 [7] [µg/mL] | MIC MH 10720 [8] [µg/mL] | MIC MH 13065 [9] [µg/mL] | MIC MH 12587 [10] [µg/mL]
0.8 (≈ 1.84 µM) | 25 (≈ 57.4 µM) | 0.4 (≈ 0.919 µM) | ≤ 0.1 | CC(=O)[C@H](NC(=O)c1ccc(C#Cc2ccc(CN3CCOCC3)cc2)cc1)C(=O)NO [Compound 399] | 3.1 (≈ 7.12 µM) | 6.3 (≈ 14.5 µM) | 6.3 (≈ 14.5 µM) | 1.6 (≈ 3.67 µM) | 6.3 (≈ 14.5 µM) | 1.6 (≈ 3.67 µM)
≤ 0.1 | 0.2 (≈ 0.477 µM) | 0.2 (≈ 0.477 µM) | 0.4 (≈ 0.953 µM) | CC(C)[C@H](NC(=O)c1ccc(C#Cc2ccc(CN3CCCC3)cc2)cc1)C(=O)NO [Compound 212] | 3.1 (≈ 7.39 µM) | 6.3 (≈ 15 µM) | 12.5 (≈ 29.8 µM) | 0.8 (≈ 1.91 µM) | 3.1 (≈ 7.39 µM) | 12.5 (≈ 29.8 µM)
≤ 0.1 | ≤ 0.1 | 0.2 (≈ 0.438 µM) | 0.4 (≈ 0.876 µM) | CC(C)[C@H](NC(=O)c1ccc(C#Cc2ccc(CNCc3cccnc3)cc2)cc1)C(=O)NO [Compound 167] | 0.4 (≈ 0.876 µM) | 0.4 (≈ 0.876 µM) | 0.8 (≈ 1.75 µM) | ≤ 0.1 | 0.8 (≈ 1.75 µM) | 0.8 (≈ 1.75 µM)
≤ 0.1 | ≤ 0.1 | 0.4 (≈ 0.824 µM) | 0.8 (≈ 1.65 µM) | CCCNCc1ccc(C#Cc2ccc(C(=O)N[C@H](C(=O)NO)C(C)(C)S(C)(=O)=O)cc2)cc1 [Compound 265] | 6.3 (≈ 13 µM) | 6.3 (≈ 13 µM) | 3.1 (≈ 6.38 µM) | 0.8 (≈ 1.65 µM) | 3.1 (≈ 6.38 µM) | 6.3 (≈ 13 µM)
